Results as given in patent USRE48267E1, “Variants of C-type natriuretic peptide” (priority 2009, dated 2020).
Marks after values point to notes of the source that are not given here. Values belong to the molecule of their own block, whether it stands above or below them. Where a SMILES comes first, the peptide text is derived from it. Bridges are numbered along the chain shown (N, C = ends). The star is where a group is joined. CH3O(CH2CH2O)11CH2CH2CO = COCCOCCOCCOCCOCCOCCOCCOCCOCCOCCOCCOCCC(=O)*

Legend:
wild-type FVB mice = assay: efficacy of CNP variants on bone growth in wild-type mice; assay type: in vivo, mouse; conditions: 200 nmol/kg s.c. once daily for 5 weeks
Method: The in vivo effects of CNP variants on bone growth were assessed in wild-type mice. Three week old FVB wild-type male mice received daily subcutaneous (s.c.) injection of either vehicle, G-CNP37 (200 nmol/kg) or […]”) (SEQ ID NO: 36) (200 nmol/kg) for 5 weeks. Body weight was measured at least once weekly. Tail length was measured at least once weekly using digital caliper readings, and body length (naso-anal length), bone length (tibia, femur, ulna and humerus), skull length (anterior to posterior cranial segment) and lumbar vertebrae 5 (LV5) length were measured after 5 weeks of treatment using a caliper. X-rays were taken at baseline and after 5 weeks of treatment. […] In another study, various dosing regimens of Pro-Gly-CNP37 were administered for nine weeks followed by one week of recovery. Wild-type FVB mice were dosed s.c. with: • (1) vehicle daily for nine weeks, followed by one week of recovery; • (2) 20 nmol/kg Pro -Gly-CNP37 daily for one week, followed by three doses per week for eight weeks and one week of recovery; • (3) 20 nmol/kg Pro-Gly-CNP37 on alternating weeks; or • (4) 5 nmol/kg Pro-Gly-CNP37 daily for nine weeks followed by one week of recovery.

[1] = IgG assay (immunogenicity) in mice
Method: An IgG assay was performed to assess whether an IgG immune response was triggered by 5 week exposure of achondroplastic FGFR3^ach mice to CNP22, CNP37 or PEO24-GANRR-CNP22(K4R) (“CNP27-PEO24”) (SEQ ID NO: 36). IgG is the most predominant immunoglobulin in mouse and human serum and is produced as part of the secondary immune response to an antigen. The IgG response to administration of the CNP peptides was determined as follows. 96-well plates were coated with 100 ng/mL CNP22, CNP37 or PEO24-GANRR-CNP22(K4R) (SEQ ID NO: 36) in BupH PBS buffer (Pierce/Thermo, Cat. No. 28372, Rockford, Ill.). After overnight incubation, plates were blocked with Casein-PBS blocking buffer (Pierce/Thermo, Cat. No. 37528) for two hours at room temperature with shaking at 300 rpm. After washing with wash buffer (1×PBS with 0.05% Tween), diluted serum samples from a terminal bleed (diluted 1:25) were added to the plate. Positive and negative controls were also loaded onto the plate. Positive control was 1:25 diluted serum (pooled from 6 individual FVB mice) with anti-CNP22 antibody added (Bachem rabbit anti-CNP22 IgG, Cat. No. T-4222) at 1:1000 dilution. Negative control was the diluted pooled serum. After two hours of incubation, the plates were washed and secondary antibody diluted in blocking buffer was added to the wells. For the mouse serum samples, anti-mouse IgG Fcγ (peroxidase-conjugated affinipure goat anti-mouse IgG, Fcγ fragment, Cat. No. 115-035-071, Jackson Immunoresearch, West Grove, Pa.) was added at a 1:10,000 dilution. For the positive and negative controls, anti-rabbit IgG-HRP (Santa Cruz Biotechnology, Cat. No. SC-2004, Santa Cruz, Calif.) was added to blocking buffer. After two hours of incubation at room temperature with shaking at 300 rpm, plates were washed with wash buffer. 100 uL of TMB (One-step TMB, Pierce/Thermo, Cat. No. 34022) was added to all wells. Plates were incubated at room temperature for 15 minutes with shaking at 300 rpm. Colorimetric reactions were stopped by the addition of 100 uL of 2 N H2SO4. Plates were read at 450 nm (Spectramax, Molecular Devices, Sunnyvale, Calif.) and data was analyzed using SoftMax Pro software (Molecular Devices).
The immunogenic response of wild-type mice administered G-CNP37, PEO12-GANRR-CNP22(K4R) (SEQ ID NO: 36) or Pro-Gly-CNP37, as measured by an increase in serum IgG level, was also assessed by examining terminal bleed serum samples as described above.

Recombinant human NEP = Recombinant human NEP (Homo sapiens, UniProt P08473); assay: in vitro NEP cleavage assay (disappearance of non-cleaved CNP variant)
Sequence of Recombinant human NEP (P08473 whole entry): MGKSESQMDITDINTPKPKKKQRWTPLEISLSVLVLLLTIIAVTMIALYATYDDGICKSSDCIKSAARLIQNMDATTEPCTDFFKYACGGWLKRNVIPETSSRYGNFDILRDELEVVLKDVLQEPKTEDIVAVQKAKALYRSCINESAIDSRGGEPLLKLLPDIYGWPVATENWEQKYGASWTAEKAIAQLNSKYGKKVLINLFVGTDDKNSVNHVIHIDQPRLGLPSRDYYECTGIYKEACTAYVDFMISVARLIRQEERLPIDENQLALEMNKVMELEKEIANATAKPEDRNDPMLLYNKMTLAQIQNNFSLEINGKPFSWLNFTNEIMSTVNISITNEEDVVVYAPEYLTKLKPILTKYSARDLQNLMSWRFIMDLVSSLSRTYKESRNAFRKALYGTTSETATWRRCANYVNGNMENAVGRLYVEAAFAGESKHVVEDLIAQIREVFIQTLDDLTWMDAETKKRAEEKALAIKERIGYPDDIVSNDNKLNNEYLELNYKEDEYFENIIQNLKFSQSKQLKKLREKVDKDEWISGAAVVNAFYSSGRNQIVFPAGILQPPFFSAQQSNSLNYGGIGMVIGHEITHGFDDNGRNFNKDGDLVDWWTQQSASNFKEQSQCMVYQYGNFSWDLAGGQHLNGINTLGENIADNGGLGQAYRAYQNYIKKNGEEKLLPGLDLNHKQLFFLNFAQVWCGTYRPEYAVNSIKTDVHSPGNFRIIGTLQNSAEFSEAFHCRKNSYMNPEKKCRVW
In short: (§1)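 Recombinant human NEP (1 ug/mL final) incubated with 100 uM CNP variant in 0.1 M Tris, pH 7, at 37° C for various times, then quenched with EDTA (10 mM final) and heat. Samples reduced and analysed by HPLC and mass spectrometry. Half-life derived from loss of intact variant over time.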

[2] = biological target: neutral endopeptidase (NEP) (Homo sapiens, UniProt P08473); assay: in vitro; conditions: human, pH 7
Sequence of neutral endopeptidase (NEP) (P08473 whole entry): as above
In short: as §1

[3] = normal human; cited from earlier work
NPR-C = NPR-C (Homo sapiens, UniProt P17342); conditions: read-out: affinity to NPR-C; cited from earlier work
Sequence of NPR-C (P17342 27-541, species assumed): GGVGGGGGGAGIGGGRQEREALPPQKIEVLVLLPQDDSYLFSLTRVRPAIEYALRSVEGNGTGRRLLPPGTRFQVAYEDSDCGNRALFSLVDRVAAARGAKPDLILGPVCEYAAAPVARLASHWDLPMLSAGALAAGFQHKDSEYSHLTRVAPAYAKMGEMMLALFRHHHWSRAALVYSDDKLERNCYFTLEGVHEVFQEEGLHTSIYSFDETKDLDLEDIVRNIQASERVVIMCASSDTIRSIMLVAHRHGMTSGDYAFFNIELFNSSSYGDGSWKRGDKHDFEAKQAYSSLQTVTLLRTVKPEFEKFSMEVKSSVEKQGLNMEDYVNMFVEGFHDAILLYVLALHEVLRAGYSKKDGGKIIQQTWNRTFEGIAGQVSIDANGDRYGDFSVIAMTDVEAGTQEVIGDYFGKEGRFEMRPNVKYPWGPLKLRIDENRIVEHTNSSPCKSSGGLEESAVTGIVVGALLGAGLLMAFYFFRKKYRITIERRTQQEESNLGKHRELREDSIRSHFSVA

[4] = pharmacokinetics in rats (plasma CNP immunoreactivity by RIA); assay type: in vivo, rat
Method: Recombinant wild-type CNP22, CNP37 and PEO24-GANRR-CNP22 […]) (SEQ ID NO: 36) were evaluated. […] Standard and QC samples were prepared. […] Plasma CNP immunoreactivity was employed for pharmacokinetics (PK) analysis. PK analysis was performed using WINNONLIN® Professional (Pharsight Corporation).

NPR-B = NPR-B (Homo sapiens, UniProt P20594); conditions: read-out: affinity to NPR-B; cited from earlier work
Sequence of NPR-B (P20594 23-1047, species assumed): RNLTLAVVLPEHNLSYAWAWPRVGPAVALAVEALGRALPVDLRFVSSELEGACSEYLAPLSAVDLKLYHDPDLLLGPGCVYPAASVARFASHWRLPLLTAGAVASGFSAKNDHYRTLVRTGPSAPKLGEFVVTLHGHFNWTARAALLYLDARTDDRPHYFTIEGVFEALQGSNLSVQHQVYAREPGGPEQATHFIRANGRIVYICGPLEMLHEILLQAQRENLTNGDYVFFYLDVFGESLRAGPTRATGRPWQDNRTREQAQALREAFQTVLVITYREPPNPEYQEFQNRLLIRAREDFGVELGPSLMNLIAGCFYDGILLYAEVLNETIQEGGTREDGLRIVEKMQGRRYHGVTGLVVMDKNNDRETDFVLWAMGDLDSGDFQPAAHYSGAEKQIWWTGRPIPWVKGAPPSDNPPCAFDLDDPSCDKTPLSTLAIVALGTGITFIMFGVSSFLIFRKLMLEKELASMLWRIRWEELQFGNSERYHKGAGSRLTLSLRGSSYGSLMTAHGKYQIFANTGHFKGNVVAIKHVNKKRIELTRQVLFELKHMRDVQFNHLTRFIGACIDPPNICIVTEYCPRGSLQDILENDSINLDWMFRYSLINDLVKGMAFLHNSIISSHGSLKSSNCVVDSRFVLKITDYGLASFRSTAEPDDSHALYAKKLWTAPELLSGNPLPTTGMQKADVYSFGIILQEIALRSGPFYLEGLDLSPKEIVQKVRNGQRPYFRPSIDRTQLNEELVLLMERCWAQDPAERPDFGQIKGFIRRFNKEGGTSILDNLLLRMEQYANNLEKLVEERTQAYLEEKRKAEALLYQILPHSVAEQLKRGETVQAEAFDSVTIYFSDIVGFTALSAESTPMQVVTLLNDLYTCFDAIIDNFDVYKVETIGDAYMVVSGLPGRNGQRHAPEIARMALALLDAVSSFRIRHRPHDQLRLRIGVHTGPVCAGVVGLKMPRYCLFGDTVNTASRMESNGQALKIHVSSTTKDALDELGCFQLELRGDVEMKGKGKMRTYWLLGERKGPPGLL

[5] = biological target: NPR-B (natriuretic peptide receptor B), murine, expressed endogenously on NIH3T3 cells (murine) (UniProt Q6VVW5); assay: cell-based or functional assay
Sequence of NPR-B (natriuretic peptide receptor B), murine, expressed endogenously on NIH3T3 cells (murine) (Q6VVW5 17-1047): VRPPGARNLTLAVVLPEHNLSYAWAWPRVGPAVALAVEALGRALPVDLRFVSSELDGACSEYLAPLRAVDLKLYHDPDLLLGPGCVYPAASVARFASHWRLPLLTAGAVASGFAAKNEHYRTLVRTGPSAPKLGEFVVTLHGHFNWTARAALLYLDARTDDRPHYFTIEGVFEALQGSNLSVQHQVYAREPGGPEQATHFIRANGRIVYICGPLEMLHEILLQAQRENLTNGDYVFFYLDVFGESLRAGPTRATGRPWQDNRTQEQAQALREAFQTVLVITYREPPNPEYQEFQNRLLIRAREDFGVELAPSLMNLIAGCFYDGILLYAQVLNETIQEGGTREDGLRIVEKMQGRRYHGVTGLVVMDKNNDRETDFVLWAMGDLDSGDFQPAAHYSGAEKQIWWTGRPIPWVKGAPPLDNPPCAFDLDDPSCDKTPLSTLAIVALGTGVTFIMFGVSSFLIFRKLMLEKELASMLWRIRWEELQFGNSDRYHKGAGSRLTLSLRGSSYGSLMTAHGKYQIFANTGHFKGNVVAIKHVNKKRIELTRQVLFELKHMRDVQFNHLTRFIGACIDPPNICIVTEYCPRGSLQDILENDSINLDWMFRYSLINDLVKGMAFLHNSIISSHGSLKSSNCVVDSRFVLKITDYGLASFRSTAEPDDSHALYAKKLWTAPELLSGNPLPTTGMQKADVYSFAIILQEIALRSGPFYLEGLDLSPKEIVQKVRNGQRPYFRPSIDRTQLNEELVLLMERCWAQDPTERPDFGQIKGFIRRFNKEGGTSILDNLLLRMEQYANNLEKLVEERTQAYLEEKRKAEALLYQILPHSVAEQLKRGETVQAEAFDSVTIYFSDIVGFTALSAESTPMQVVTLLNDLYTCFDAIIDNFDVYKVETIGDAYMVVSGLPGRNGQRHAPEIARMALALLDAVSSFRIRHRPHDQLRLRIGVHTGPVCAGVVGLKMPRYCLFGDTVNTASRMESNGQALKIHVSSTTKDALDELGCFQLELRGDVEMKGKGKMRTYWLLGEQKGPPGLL

Molecule: CC[C@H](C)[C@@H]1NC(=O)[C@H](CCCNC(=N)N)NC(=O)[C@H](CC(=O)O)NC(=O)[C@H](CC(C)C)NC(=O)[C@H](CCCCN)NC(=O)[C@H](CC(C)C)NC(=O)CNC(=O)[C@H](Cc2ccccc2)NC(=O)[C@@H](NC(=O)CNC(=O)[C@H](CCCNC(=N)N)NC(=O)[C@H](CO)NC(=O)[C@H](CC(C)C)NC(=O)CNC(=O)[C@H](CCCNC(=N)N)NC(=O)[C@H](CCCNC(=N)N)NC(=O)[C@H](CC(N)=O)NC(=O)[C@H](C)NC(=O)CNC(=O)CCOCCOCCOCCOCCOCCOCCOCCOCCOCCOCCOCCOC)CSSC[C@@H](C(=O)O)NC(=O)CNC(=O)[C@H](CC(C)C)NC(=O)CNC(=O)[C@H](CO)NC(=O)[C@H](CCSC)NC(=O)[C@H](CO)NC(=O)CNC1=O [PEO12-GANRR-CNP22(K4R)] ({CH3O(CH2CH2O)11CH2CH2CO}-GANRRGLSRGCFGLKLDRIGSMSGLGC-OH; disulfide 11-27; C-terminus assumed)
Anterior to Posterior (Skull) length, relative to vehicle = 100% (wild-type FVB mice): 101%
Femur length, relative to vehicle = 100% (wild-type FVB mice): 102%*
Humerus length, relative to vehicle = 100% (wild-type FVB mice): 102%*
LV5 length, relative to vehicle = 100% (wild-type FVB mice): 103%
Naso-Anal (body) length, relative to vehicle = 100% (wild-type FVB mice): 104%**
Tail length, relative to vehicle = 100% (wild-type FVB mice): 101%
Tibia length, relative to vehicle = 100% (wild-type FVB mice): 100%
Ulna length, relative to vehicle = 100% (wild-type FVB mice): 96%*
IgG immune response ([1]; mouse, in vivo): None of the wild-type mice
resistance to NEP cleavage (in words) (Recombinant human NEP): much greater stability to NEP degradation compared to wtCNP22

IgG immune response ([1]; mouse, in vivo): one out of six
resistance to NEP cleavage (in words) (Recombinant human NEP): completely resistant to NEP cleavage
half-life at 100 uM [2]: > 2.67 h
Molecule: CC[C@H](C)[C@@H]1NC(=O)[C@H](CCCNC(=N)N)NC(=O)[C@H](CC(=O)O)NC(=O)[C@H](CC(C)C)NC(=O)[C@H](CCCCN)NC(=O)[C@H](CC(C)C)NC(=O)CNC(=O)[C@H](Cc2ccccc2)NC(=O)[C@@H](NC(=O)CNC(=O)[C@H](CCCCN)NC(=O)[C@H](CO)NC(=O)[C@H](CC(C)C)NC(=O)CNC(=O)[C@H](CCCCN)NC(=O)[C@H](CCCCN)NC(=O)[C@H](CC(N)=O)NC(=O)[C@H](C)NC(=O)CNC(=O)[C@H](CCCCN)NC(=O)[C@H](Cc2ccc(O)cc2)NC(=O)[C@H](CCCCN)NC(=O)[C@H](CCCNC(=N)N)NC(=O)[C@H](C)NC(=O)[C@H](CC(N)=O)NC(=O)[C@@H]2CCCN2C(=O)[C@H](Cc2c[nH]cn2)NC(=O)[C@H](CCC(=O)O)NC(=O)[C@H](CCC(N)=O)NC(=O)CN)CSSC[C@@H](C(=O)O)NC(=O)CNC(=O)[C@H](CC(C)C)NC(=O)CNC(=O)[C@H](CO)NC(=O)[C@H](CCSC)NC(=O)[C@H](CO)NC(=O)CNC1=O [Analog DB]

Molecule: CC[C@H](C)[C@@H]1NC(=O)[C@H](CCCNC(=N)N)NC(=O)[C@H](CC(=O)O)NC(=O)[C@H](CC(C)C)NC(=O)[C@H](CCCCN)NC(=O)[C@H](CC(C)C)NC(=O)CNC(=O)[C@H](Cc2ccccc2)NC(=O)[C@@H](NC(=O)CNC(=O)[C@H](CCCCN)NC(=O)[C@H](CO)NC(=O)[C@H](CC(C)C)NC(=O)CN)CSSC[C@@H](C(=O)O)NC(=O)CNC(=O)[C@H](CC(C)C)NC(=O)CNC(=O)[C@H](CO)NC(=O)[C@H](CCSC)NC(=O)[C@H](CO)NC(=O)CNC1=O [CNP22, reference compound]
in vivo (plasma) half-life [3]: 2.6 min
Kd (NPR-C): 0.011 to 0.14 nM
IgG immune response ([1]; FGFR3^ach mice, 5 week exposure, 200 nmol/kg): no positive IgG immune response in any of the mice
NEP Cleavage (t1/2, min) (Recombinant human NEP; 100 uM peptide, 1 ug/mL NEP, 0.1 M Tris pH 7, 37° C., adjusted t1/2, CNP22 normalized to 80 min): 80 min
area under the curve, AUC (pmol·min/mL) ([4]; i.v. 20 nmol/kg): 320 (±54) pmol·min/mL
bioavailability ([4]; s.c. 50 nmol/kg): 19%
Kd (NPR-B): 0.007 to 0.03 nM

cGMP response rel. to 1 uM CNP22; 10 nM peptide, NIH3T3 cells (rel. to 1 uM CNP22 (100)) [5]: 10
cGMP response rel. to 1 uM CNP22; 1 uM peptide, NIH3T3 cells (rel. to 1 uM CNP22 (100)) [5]: 23
Molecule: ANP (atrial natriuretic peptide) (from UniProt P01160 124-151)
